Series [1] in a line: Metabolite identification in urine of male, bile duct-cannulated rats after intravenous dosing. It counts as in vivo, rat. The conditions noted are these: carbon 14 labeled, intravenous 20 mg/kg in saline, urine collected over 24 hours. As for the experimental part: Purification of 3-(2-Phenethyleneamino)-6-hydroxymethyl-1-(2-methyl-6-amino-3-methylenecarboxamidomethyl)pyrazin-2-one from male, bile duct-cannulated rats.
(§1) Rats were dosed intravenously with carbon 14 labeled [drawing 16] at 20 mg/kg in saline at 1 mL/kg. Bile and urine were collected periodically over 24 hours. Aliquots of these were analyzed for total radioactivity. Urine was also fractionated by HPLC using Zorbax XDB-C8 column eluted with 0.1% trifluoroacetic acid-water and acetonitrile gradient, and the fractions analyzed by mass spectrometry.

A further series deals with thrombin. Put plainly: Bioassay of HPLC urine fractions for inhibitory effect on thrombin activity. It counts as biochemical. The conditions noted are these: urine HPLC fraction from rats, evaporated to dryness. As for the experimental part:
as §1
In another procedure, the urine was fractionated by HPLC. An aliquot of the fractions was assayed for total radioactivity, and the remaining volume was evaporated to dryness, under nitrogen, and bioassayed for inhibitory effect on the thrombin activity.

Molecules are shown by their SMILES.

These results are taken from US6147078A, “Pyrazinone thrombin inhibitors” (Merck & Co., Inc., priority 1999, dated 2000).

`Cc1nc(N)ccc1CNC(=O)Cn1c(C)cnc(NCCc2ccccc2)c1=O`: the “metabolite in urine (site of hydroxylation)” value in series [1] is on record as “hydroxylation on the methylpyrazinone moiety”. Regarding `Cc1nc(N)ccc1CNC(=O)Cn1c(CO)cnc(NCCc2ccccc2)c1=O` [6-HYDROXYMETHYL-3-(2-PHENETHYLAMINO )-1-(2-AMINO-6-METHYL-5-METHYLCARBOXAMIDOMETHYLPYRIDINYL)-PYRAZINONE], the “inhibitory effect on the thrombin activity” value in the series on thrombin is on record as “significant inhibitory activity”.
